Measured values as given in publication PMC9322451 (Clinical Pharmacology in Drug Development, 2022).

Key:
[1] = Phase 1 part B: safety (TEAEs); type: in vivo, human; conditions: for Any TEAE / Serious TEAE / Severe TEAE / TEAE leading to death / TEAE leading to discontinuation / Abdominal pain upper (TEAE by preferred term) / Decreased appetite (TEAE by preferred term) / Dry skin (TEAE by preferred term) / Headache (TEAE by preferred term) / Skin exfoliation (TEAE by preferred term) / Skin lesion (TEAE by preferred term): Part B, 40 mg; for participants reporting skin exfoliation / participants who experienced a TEAE / number of TEAEs reported: part B
Description: Participants were admitted to the clinical unit the day before doses were administered on days 1 and 8 and discharged on days 2 and 9, after collection of the 36‐hour postdose PK sample. The washout period between doses was 7 days. […] After dosing, participants were required to remain upright for at least 2 hours and refrain from food and drink for at least 4 hours; water was allowed after 2 hours.
Safety was assessed from the signing of informed consent until the end of study and included the following variables: treatment‐emergent adverse events (TEAEs), serious adverse events (SAEs), clinical laboratory tests (clinical chemistry, hematology, coagulation [part A only], and urinalysis), vital signs, 12‐lead ECG, primary Holter monitoring, and physical examinations (including evaluation of teeth and gingiva, and evaluation of palms and soles). Because of the mechanism of action of brensocatib, findings of hyperkeratosis, periodontitis/gingivitis, and other infections were reported as adverse events of special interest (AESIs). Renal function (part A only) was monitored by measuring serum creatinine and blood urea nitrogen, performing routine urinalysis, and measuring neutrophil gelatinase–associated lipocalin and cystatin.
Adverse events (AEs) observed before the first dosing were recorded as medical history. All medical history and AEs were coded using the Medical Dictionary for Regulatory Activities (version 21.1 or higher). A TEAE was defined as an AE that began or worsened in severity after at least 1 dose of study drug was administered. All AEs experienced by a participant were monitored until the event had resolved, any abnormal laboratory values returned to baseline or stabilized, a satisfactory explanation for the changes was identified, or the participant was lost to follow‐up.

CYP2B6 = test system: CYP2B6; parameters: method as in unpublished data; conditions: ref unpublished data, read-out: half maximal inhibitory concentration; cited from earlier work
CYP2C8 = test system: CYP2C8; parameters: method as in unpublished data; conditions: ref unpublished data; cited from earlier work
[2] = test system: organic anion transporting polypeptides; parameters: method as in unpublished data; conditions: ref unpublished data, read-out: half maximal inhibitory concentration; cited from earlier work
[3] = test system: multidrug and toxin extrusion transporters; parameters: method as in unpublished data; conditions: ref unpublished data, read-out: half maximal inhibitory concentration; cited from earlier work
[4] = parameters: method as in PMID 29484635; conditions: single 35‐mg dose following a high‐fat breakfast; cited from earlier work
neutrophil elastase [5] = test system: neutrophil elastase; parameters: method as in PMID 29484635; conditions: cited from earlier work
neutrophil elastase [6] = conditions: 10 and 25 mg, patients with non–cystic fibrosis bronchiectasis, WILLOW study; cited from earlier work

Cn1c(=O)oc2ccc(-c3ccc(C[C@@H](C#N)NC(=O)[C@@H]4CNCCCO4)cc3)cc21 [Brensocatib]
Any TEAE ([1]; Japanese, Fasted (n=5)): 0 n (%)
Serious TEAE ([1]; Japanese, Fasted (n=5)): 0 n (%)
Severe TEAE ([1]; Japanese, Fasted (n=5)): 0 n (%)
TEAE leading to death ([1]; Japanese, Fasted (n=5)): 0 n (%)
TEAE leading to discontinuation ([1]; Japanese, Fasted (n=5)): 0 n (%)
Abdominal pain upper (TEAE by preferred term) ([1]; Japanese, Fasted (n=10)): 0 n (%)
Decreased appetite (TEAE by preferred term) ([1]; Japanese, Fasted (n=10)): 0 n (%)
Dry skin (TEAE by preferred term) ([1]; Japanese, Fasted (n=10)): 0 n (%)
Headache (TEAE by preferred term) ([1]; Japanese, Fasted (n=10)): 0 n (%)
Skin exfoliation (TEAE by preferred term) ([1]; Japanese, Fasted (n=10)): 0 n (%)
Skin lesion (TEAE by preferred term) ([1]; Japanese, Fasted (n=10)): 0 n (%)
Any TEAE ([1]; Japanese, Fed (n=5)): 3 (60.0) n (%)
Serious TEAE ([1]; Japanese, Fed (n=5)): 0 n (%)
Severe TEAE ([1]; Japanese, Fed (n=5)): 0 n (%)
TEAE leading to death ([1]; Japanese, Fed (n=5)): 0 n (%)
TEAE leading to discontinuation ([1]; Japanese, Fed (n=5)): 0 n (%)
Abdominal pain upper (TEAE by preferred term) ([1]; Japanese, Fed (n=9)): 1 (11.1) n (%)
Decreased appetite (TEAE by preferred term) ([1]; Japanese, Fed (n=9)): 1 (11.1) n (%)
Dry skin (TEAE by preferred term) ([1]; Japanese, Fed (n=9)): 0 n (%)
Headache (TEAE by preferred term) ([1]; Japanese, Fed (n=9)): 1 (11.1) n (%)
Skin exfoliation (TEAE by preferred term) ([1]; Japanese, Fed (n=9)): 1 (11.1) n (%)
Skin lesion (TEAE by preferred term) ([1]; Japanese, Fed (n=9)): 0 n (%)
Abdominal pain upper (TEAE by preferred term) ([1]; Japanese, Total (N=10)): 1 (10.0) n (%)
Any TEAE ([1]; Japanese, Total (N=10)): 3 (30.0) n (%)
Decreased appetite (TEAE by preferred term) ([1]; Japanese, Total (N=10)): 1 (10.0) n (%)
Dry skin (TEAE by preferred term) ([1]; Japanese, Total (N=10)): 0 n (%)
Headache (TEAE by preferred term) ([1]; Japanese, Total (N=10)): 1 (10.0) n (%)
Serious TEAE ([1]; Japanese, Total (N=10)): 0 n (%)
Severe TEAE ([1]; Japanese, Total (N=10)): 0 n (%)
Skin exfoliation (TEAE by preferred term) ([1]; Japanese, Total (N=10)): 1 (10.0) n (%)
Skin lesion (TEAE by preferred term) ([1]; Japanese, Total (N=10)): 0 n (%)
TEAE leading to death ([1]; Japanese, Total (N=10)): 0 n (%)
TEAE leading to discontinuation ([1]; Japanese, Total (N=10)): 0 n (%)
Any TEAE ([1]; White, Fasted (n=5)): 1 (20.0) n (%)
Serious TEAE ([1]; White, Fasted (n=5)): 0 n (%)
Severe TEAE ([1]; White, Fasted (n=5)): 0 n (%)
TEAE leading to death ([1]; White, Fasted (n=5)): 0 n (%)
TEAE leading to discontinuation ([1]; White, Fasted (n=5)): 0 n (%)
Abdominal pain upper (TEAE by preferred term) ([1]; White, Fasted (n=10)): 0 n (%)
Decreased appetite (TEAE by preferred term) ([1]; White, Fasted (n=10)): 0 n (%)
Dry skin (TEAE by preferred term) ([1]; White, Fasted (n=10)): 0 n (%)
Headache (TEAE by preferred term) ([1]; White, Fasted (n=10)): 0 n (%)
Skin exfoliation (TEAE by preferred term) ([1]; White, Fasted (n=10)): 0 n (%)
Skin lesion (TEAE by preferred term) ([1]; White, Fasted (n=10)): 1 (10.0) n (%)
Any TEAE ([1]; White, Fed (n=5)): 2 (40.0) n (%)
Serious TEAE ([1]; White, Fed (n=5)): 0 n (%)
Severe TEAE ([1]; White, Fed (n=5)): 0 n (%)
TEAE leading to death ([1]; White, Fed (n=5)): 0 n (%)
TEAE leading to discontinuation ([1]; White, Fed (n=5)): 0 n (%)
Abdominal pain upper (TEAE by preferred term) ([1]; White, Fed (n=10)): 0 n (%)
Decreased appetite (TEAE by preferred term) ([1]; White, Fed (n=10)): 0 n (%)
Dry skin (TEAE by preferred term) ([1]; White, Fed (n=10)): 1 (10.0) n (%)
Headache (TEAE by preferred term) ([1]; White, Fed (n=10)): 0 n (%)
Skin exfoliation (TEAE by preferred term) ([1]; White, Fed (n=10)): 1 (10.0) n (%)
Skin lesion (TEAE by preferred term) ([1]; White, Fed (n=10)): 0 n (%)
Abdominal pain upper (TEAE by preferred term) ([1]; White, Total (N=10)): 0 n (%)
Any TEAE ([1]; White, Total (N=10)): 3 (30.0) n (%)
Decreased appetite (TEAE by preferred term) ([1]; White, Total (N=10)): 0 n (%)
Dry skin (TEAE by preferred term) ([1]; White, Total (N=10)): 1 (10.0) n (%)
Headache (TEAE by preferred term) ([1]; White, Total (N=10)): 0 n (%)
Serious TEAE ([1]; White, Total (N=10)): 0 n (%)
Severe TEAE ([1]; White, Total (N=10)): 0 n (%)
Skin exfoliation (TEAE by preferred term) ([1]; White, Total (N=10)): 1 (10.0) n (%)
Skin lesion (TEAE by preferred term) ([1]; White, Total (N=10)): 1 (10.0) n (%)
TEAE leading to death ([1]; White, Total (N=10)): 0 n (%)
TEAE leading to discontinuation ([1]; White, Total (N=10)): 0 n (%)
participants reporting skin exfoliation ([1]; Japanese): 10.0%
participants who experienced a TEAE ([1]; Japanese): 30.0%
number of TEAEs reported ([1]; Japanese, fasted conditions): none
number of TEAEs reported ([1]; Japanese, fed conditions): 4
participants reporting skin exfoliation ([1]; White): 10.0%
participants who experienced a TEAE ([1]; White): 30.0%
number of TEAEs reported ([1]; White, fasted conditions): 1
number of TEAEs reported ([1]; White, fed conditions): 2
IC50 (CYP2B6): > 30 µM
CYP inhibition (CYP2C8): no effect
IC50 [2]: > 11 µM
IC50 [3]: > 11 µM
Tmax [4]: 3.3 h
decrease of AUC with food [4]: 9%
decrease of Cmax with food [4]: 36%
inhibition of the activity of neutrophil elastase in blood (neutrophil elastase [5]): exposure‐dependent
effect on neutrophil elastase and clinical outcomes (neutrophil elastase [6]): reduced neutrophil elastase and improved clinical outcomes
